{"source": "patent US7247734B2", "about": "(Vernalis (Cambridge) Limited, priority 2001, dated 2007)", "key": {"[1]": {"system": "HCT116 human colon tumour cells", "test": "96 h growth inhibition assay (SRB), HCT116", "format": "cell-based", "details": "HCT116, 96 h", "procedure": "(§1) The growth inhibition assay employed was based on that described previously (Kelland et al., 1993). HCT116 and HT29 human colon tumour cells (American Tissue Culture Collection) were seeded into 96-well tissue culture plates (approximately 1600–2000 cells per well) and allowed to attach for 36 hours. Eight wells were treated with a single concentration from a range of compound concentrations and incubated for 96 hours. Cells were fixed using ice cold 10% trichloroacetic acid (TCA). Plates were then washed five times with water, air dried, and stained with 0.4% sulphorhodamine B (SRB) in 1% acetic acid for 10 minutes. The SRB stain was solubilised in 10 mM Tris-HCl and the absorbance measured at 540 nm using a Titertek Multiscan MCC/340 MKII plate reader (Flow Laboratories, IEC, Basingstoke, N.H.). The absorbance values correspond to total protein content and are used as a measure of cell growth."}, "[2]": {"system": "HSP70 and RAF-1 expression in A2780 human ovarian cancer cells", "test": "Western blotting of HSP70 and RAF-1 in A2780 cells", "format": "cell-based", "details": "60 nM (5×IC50), various times", "procedure": "(§2) The cellular effects of HSP90 inhibitors can be measured using a number of molecular markers. As already mentioned, HSP90 inhibition leads to the depletion of several important cellular signalling proteins. […] Depletion is normally observed by 6 h, with maximum depletion occurring at 24 h. As well as RAF-1, depletion of several other HSP90 client proteins can be measured by immunoblotting e.g., CDK4, ERBB2. However, it is important to note that some of these proteins are cell line specific e.g., ERBB2 is expressed mainly in breast, thyroid, kidney and some ovarian tumour cell lines. Another very important marker of HSP90 inhibition is heat shock protein 70 (HSP70). A HSF-1 (heatshock factor 1) dependent increase in HSP70 levels has been reported by us and other groups (see, e.g., Whitesell et al., 1994; Clarke et al., 2000) and this effect can serve as a positive indicator of HSP90 inhibitor action. The immunoblotting method described is based on standard techniques but is described in detail for ease of reference.\nPrepare as required and store at −20° C. • (4) Bicinchoninic acid (BCA) protein assay reagents (PerBio Science UK, Ltd., Chester, UK). • (5) Casein blocking buffer (0.5% casein, 0.02% thimerosal, in PBS). […]\n(§3) Comments • (1) The protein bands are normally evaluated visually. […]"}, "[3]": {"system": "HT29 human colon tumour cells", "test": "96 h growth inhibition assay (SRB), HT29", "format": "cell-based", "details": "HT29, 96 h", "procedure": "as §1"}, "[4]": {"system": "HSP70 and client protein (CDK4) expression in HT29 cells", "test": "Western blotting of HSP70 and CDK4 in HT29 cells", "format": "cell-based, human", "details": "24 hours, various concentrations", "procedure": "as §2\nPrepare as required and store at −20° C. • (4) Bicinchoninic acid (BCA) protein assay reagents (PerBio Science UK, Ltd., Chester, UK). • (5) Casein blocking buffer (0.5% casein, 0.02% thimerosal, in PBS). Store at 4° C. for up to 2 weeks. • (6) Wash buffer (phosphate buffered saline, PBS) containing 0.05% Tween 20). • (7) Tris-glycine gradient polyacrylamide precast gels (4–20%) (1 mm thick) (Novex, InVitrogen, Groningen, NL). • (8) Nitro-cellulose membrane (0.2 μm pore size) (InVitrogen, Groningen, NL). • (9) Ponceau Red stain (2% w/v in 30% TCA/30% […], Sigma Aldrich Ltd., Pool, UK). • (10) Enhanced chemiluminescence (SuperSignal) reagents (PerBio Science UK, Ltd., Chester, UK). • (11) Photographic film (Hyperfilm ECL, Amersham Pharmacia Biotech, Little Chalfont, Bucks, UK). Method\nThe following protocol was used: • (1) Lyse cells (approx 4×10^6) in 100 μl lysis buffer for 30 minutes on ice. When adding the lysis buffer, shear cells by pipetting up and down using a Gilson P200 pipette. • (2) Spin lysates for 10 min at 13,000 rpm at 4° C., retrieve supernatant and store at −70° C. • (3) Determine protein concentration using BCA protein assay reagents. • (4) Load samples of cell lysates (50 μg protein/lane) onto gel and separate proteins by SDS-polyacrylamide gel electrophoresis (SDS-PAGE) using a 4–20% Tris-glycine gel. • (5) Transfer proteins to nitrocellulose membrane using optimum conditions for the equipment available. For example, 150 mA for 2 h using the Mighty Small transfer system (Hoeffer TE22 Mini Tank Transphor Unit, Amersham Pharmacia Biotech, Little Chalfont, Bucks, UK). […]\nas §3"}}}
{"smiles": "C=CCNC1=C2C[C@@H](C)C[C@H](OC)[C@H](O)[C@@H](C)/C=C(\\C)[C@H](OC(N)=O)[C@@H](OC)/C=C\\C=C(/C)C(=O)NC(=CC1=O)C2=O", "note": "[Example 17AAG, 17-allylamino-17-demethoxygeldanamycin, reference compound]", "values": [{"measurement": "IC50", "setting": "[1]", "result": 100, "unit": "nM"}, {"measurement": "HSP70 expression (immunoblot)", "setting": "[2]", "result": "induced"}, {"measurement": "RAF-1 expression (immunoblot)", "setting": "[2]", "result": "depleted"}, {"measurement": "IC50", "setting": "[3]", "result": 10, "unit": "nM"}, {"measurement": "CDK4 client protein expression (immunoblot)", "setting": "[4]", "result": "depleted"}, {"measurement": "HSP70 expression (immunoblot)", "setting": "[4]", "result": "induced"}]}
